Results reported in US8470770B2, “Antimicrobial agents” (priority 2007, dated 2013).
In brackets after ≈: the same amount, converted by molar mass. Bridge positions count the residues as written; N and C are the ends. Square brackets hold non-standard residues; d marks the D form. Ends that are not written are not given here. Peptide text beside a SMILES is read from it. 12Ado = NCCCCCCCCCCCC(=O)O

Legend:
[1] = tested on: Escherichia coli (ATCC 35218); assay: microbe, parasite or virus in culture; details: for MIC E.c.: ATCC 35218
Experimental: (§1) Minimal inhibitory concentrations (MICs) were determined by microdilution susceptibility testing in 96-well plates using inocula of 10^6 bacteria per ml.
(§2) Cell populations were evaluated by optical density measurements at 600 nm and were calibrated against a set of standards. Hundred (100) μl of a bacterial suspension were added to 100 μl of culture medium (control) or to 100 μl of culture medium containing various polymer concentrations in 2-fold serial dilutions.
(§3) Alternatively, MICs were determined using the microbroth dilution assay recommended by the Clinical and Laboratory Standards Institute (CLSI) using two-fold serial dilutions in cation-adjusted Mueller-Hinton broth (CAMHB).
“MIC E.c.” represents the minimal inhibitory concentration of each tested polymer in μM for E. coli, measured as described hereinabove in the antibacterial activity assay (column 5 in Table 3);

[2] = tested on: Pseudomonas aeruginosa (ATCC 9027); assay: microbe, parasite or virus in culture; details: for MIC P.a.: ATCC 9027
Experimental: as §1, §2, §3
“MIC P.a.” represents the minimal inhibitory concentration of each tested polymer in μM for P. aeruginosa, measured as described hereinabove for the antibacterial activity assay (column 7 in Table 3);

[3] = tested on: methicillin resistant Staphylococcus aureus (CI 15903); assay: microbe, parasite or virus in culture; details: for MIC MR S.a.: methicillin resistant (CI 15903); for MIC: Staphylococcus aureus, read-out: MIC MR S.a.
Experimental: as §1, §2, §3
“MIC MR S.a.” represents the minimal inhibitory concentration of each tested polymer in μM for methicillin-resistant S. aureus, measured as described hereinabove for the antibacterial activity assay of antibiotic-resistant bacteria (column 8 in Table 3);

[4] = tested on: Enterococcus faecalis (ATCC 29212); assay: microbe, parasite or virus in culture; type: cell-based
[5] = Hydrophobicity estimation by HPLC reversed-phase C18 elution; type: physicochemical; details: HPLC-RP C18, linear acetonitrile gradient 1% per minute
Experimental: HPLC chromatograms were performed on C18 columns (Vydak, 250 mm×4.6 or 10 mm) using a linear gradient of acetonitrile in water (1% per minute), both solvents contained 0.1% trifluoroacetic acid. The purified polymers were subjected to mass spectrometry (ZQ Waters) to confirm their composition and stored as a lyophilized powder at −20° C. Prior to being tested, fresh solutions were prepared in water, mixed by vortex, solubilized by ultrasound, centrifuged and then diluted in the appropriate medium.
In order to estimate the hydrophobicity of each polymer, the polymer was eluted with a linear gradient of acetonitrile (1% per minute) on an HPLC reversed-phase C18 column, and the percent of acetonitrile at which the polymer was eluted was used for hydrophobicity estimation (see, “ACN (%)” in Table 3 below).
“ACN (%)” represents the percent of acetonitrile in the HPLC-RP gradient mobile phase at which the polymer was eluted and which corresponds to the estimated hydrophobicity of the polymer (column 4 in Table 3);

[6] = tested on: Bacillus cereus (ATCC 11778)
Experimental: as §1, §2, §3
“MIC B.c.” represents the minimal inhibitory concentration of each tested polymer in μM for Bacillus cereus, measured as described hereinabove for the antibacterial activity assay (column 9 in Table 3); and […]

| Molecule | MIC E.c. [1] [µM] | MIC P.a. [2] [µM] | MIC MR S.a. [3] [µM] | MIC ([4]; ATCC 29212) [µM] | ACN (%) (percent of acetonitrile at which the polymer was eluted; estimated hydrophobicity) [5] | also measured |
| --- | --- | --- | --- | --- | --- | --- |
| NCCCC[C@@H]1NC(=O)CCCCCCCCCCCNC(=O)[C@H](CCCCN)NC(=O)CCCCCCCCCCCNC(=O)[C@H](CCCCN)NC(=O)CCCCCCCCCCCNC(=O)[C@H](CCCCN)NC(=O)[C@H](CCCCN)NC(=O)CCCCCCCCCCCNC(=O)[C@H](CCCCN)NC(=O)CCCCCCCCCCCNC1=O [Polymer 2, Cyclic-K(NC12K)5] (cyclo(K[12Ado]K[12Ado]K[12Ado]K[12Ado]K[12Ado]K)) | 12.5 (≈ 21.9 µg/mL) | 12.5 (≈ 21.9 µg/mL) | 6.25 (≈ 11 µg/mL) | 6.25 (≈ 11 µg/mL) | 46.6 |  |
| NCCCCC1NC(=O)CCCCCCCCCCCNC(=O)C(CCCCN)NC(=O)CCCCCCCCCCCNC1=O (stereo not drawn) [Polymer 3, Cyclic-(NC12K)2] |  | >50 |  | >50 | 49.7 |  |
| NCCCCC1NC(=O)CCCCCCCCCCCNC(=O)C(CCCCN)NC(=O)CCCCCCCCCCCNC(=O)C(CCCCN)NC(=O)CCCCCCCCCCCNC(=O)C(CCCCN)NC(=O)CCCCCCCCCCCNC(=O)C(CCCCN)NC(=O)CCCCCCCCCCCNC1=O (stereo not drawn) [Polymer 6, Cyclic-(NC12K)5] |  | 50 (≈ 81.4 µg/mL) |  |  | 47.7 | MIC B.c [6]: >50 µM |
| NCCCCC1NC(=O)CCCCCCCCCCCNC(=O)C(CCCCN)NC(=O)C(CCCCN)NC(=O)CCCCCCCCCCCNC(=O)C(CCCCN)NC1=O (stereo not drawn) [Polymer 7, Cyclic-(KNC12K)2] (cyclo([12Ado]KK[12Ado]KK); configuration not given here) |  | 25 (≈ 22.7 µg/mL) |  | 50 (≈ 45.4 µg/mL) | 40.7 |  |
| NCCCC[C@@H]1NC(=O)CCCCCCCCCCCNC(=O)[C@H](CCCCN)NC(=O)[C@H](CCCCN)NC(=O)CCCCCCCCCCCNC(=O)[C@H](CCCCN)NC(=O)[C@H](CCCCN)NC(=O)CCCCCCCCCCCNC(=O)[C@H](CCCCN)NC1=O [Polymer 8, Cyclic-(KNC12K)3] (cyclo(K[12Ado]KK[12Ado]KK[12Ado]K)) | 25 (≈ 34 µg/mL) | 12.5 (≈ 17 µg/mL) | 25 (≈ 34 µg/mL) | 25 (≈ 34 µg/mL) | 41.7 |  |
| NCCCCC1NC(=O)CCCCCCCCCCCNC(=O)C(CCCCN)NC(=O)C(CCCCN)NC(=O)CCCCCCCCCCCNC1=O (stereo not drawn) [Polymer 9, Cyclic-NC12KKNC12K] (cyclo([12Ado]K[12Ado]KK); configuration not given here) |  | 50 (≈ 39 µg/mL) |  | 25 (≈ 19.5 µg/mL) | 42.7 |  |
| NCCCC[C@@H]1NC(=O)CCCCCCCCCCCNC(=O)[C@H](CCCCN)NC(=O)[C@H](CCCCN)NC(=O)CCCCCCCCCCCNC(=O)[C@H](CCCCN)NC(=O)[C@H](CCCCN)NC(=O)CCCCCCCCCCCNC1=O [Polymer 10, Cyclic-NC12K(KNC12K)2] (cyclo([12Ado]KK[12Ado]KK[12Ado]K)) | 12.5 (≈ 15.4 µg/mL) | 12.5 (≈ 15.4 µg/mL) | 12.5 (≈ 15.4 µg/mL) | 6.25 (≈ 7.71 µg/mL) | 43.1 |  |
| NCCCC[C@@H]1NC(=O)CCCCCCCCCCCNC(=O)[C@H](CCCCN)NC(=O)[C@H](CCCCN)NC(=O)[C@H](CCCCN)NC(=O)CCCCCCCCCCCNC(=O)[C@H](CCCCN)NC1=O [Polymer 11, Cyclic-KNC12KKKNC12K] (cyclo(K[12Ado]KKK[12Ado]K)) | >50 | 12.5 (≈ 12.9 µg/mL) | >50 | >50 | 38 |  |
| NCCCC[C@@H]1NC(=O)CCCCCCCCCCCNC(=O)[C@H](CCCCN)NC(=O)[C@H](CCCCN)NC(=O)[C@H](CCCCN)NC(=O)CCCCCCCCCCCNC(=O)[C@H](CCCCN)NC(=O)[C@H](CCCCN)NC1=O [Polymer 12, Cyclic-KNC12KKKNC12KK] (cyclo(K[12Ado]KKK[12Ado]KK)) | >50 | >50 | >50 | >50 | 35 |  |
| CCCCCCCCCCCC(=O)NCCCCC(N)C(=O)NCCCCCCCCCCCC(=O)NCCCCC(N)C(N)=O (stereo not drawn) [Polymer 13, C12K(ε)NC12K(ε)NH2] | 12.5 (≈ 8.16 µg/mL) | >50 | 12.5 (≈ 8.16 µg/mL) | 12.5 (≈ 8.16 µg/mL) | 54.4 |  |
| CC(C)C[C@H](NC(=O)CNC(=O)CNC(=O)[C@@H](N)CCCNC(=N)N)C(=O)N[C@H]1CSSC[C@@H](C(=O)N[C@H](C(=O)NCC(=O)N[C@@H](CCCNC(=N)N)C(N)=O)C(C)C)NC(=O)[C@H](C(C)C)NC(=O)[C@@H]2CSSC[C@H](NC(=O)[C@H](Cc3ccc(O)cc3)NC1=O)C(=O)N[C@@H](CCCNC(=N)N)C(=O)NCC(=O)N[C@@H](CCCNC(=N)N)C(=O)N[C@@H](Cc1ccccc1)C(=O)N2 [Ref. 2, IB-367, reference compound] (H-RGGLCYCRGRFCVCVGR-NH2; disulfide 5-14, 7-12) |  |  |  |  | 45 |  |
| CC[C@H](C)[C@H](NC(=O)[C@H](CCCCN)NC(=O)[C@H](CCC(=O)O)NC(=O)[C@H](CCCCN)NC(=O)[C@H](CO)NC(=O)[C@H](CCCCN)NC(=O)[C@H](CCCNC(=N)N)NC(=O)[C@H](Cc1ccccc1)NC(=O)[C@H](Cc1ccccc1)NC(=O)[C@H](CC(=O)O)NC(=O)CNC(=O)[C@H](CC(C)C)NC(=O)[C@@H](N)CC(C)C)C(=O)NCC(=O)N[C@@H](CCCCN)C(=O)N[C@@H](CCC(=O)O)C(=O)N[C@@H](Cc1ccccc1)C(=O)N[C@@H](CCCCN)C(=O)N[C@@H](CCCNC(=N)N)C(=O)N[C@H](C(=O)N[C@H](C(=O)N[C@@H](CCC(N)=O)C(=O)N[C@@H](CCCNC(=N)N)C(=O)N[C@H](C(=O)N[C@@H](CCCCN)C(=O)N[C@@H](CC(=O)O)C(=O)N[C@@H](Cc1ccccc1)C(=O)N[C@@H](CC(C)C)C(=O)N[C@@H](CCCNC(=N)N)C(=O)N[C@@H](CC(N)=O)C(=O)N[C@@H](CC(C)C)C(=O)N[C@H](C(=O)N1CCC[C@H]1C(=O)N[C@@H](CCCNC(=N)N)C(=O)N[C@H](C(=O)N[C@@H](CCC(=O)O)C(=O)N[C@@H](CO)C(=O)O)[C@@H](C)O)C(C)C)[C@@H](C)CC)C(C)C)[C@@H](C)CC [Ref. 4, LL37, reference compound] |  |  |  |  | 61 | MIC ([4]; Enterococcus faecalis): 37.5 µM (≈ 169 µg/mL) |
| C[C@@H](O)[C@H]1C(=O)N2C(C(=O)O)=C(SCCN=CN)C[C@H]12 [Ref. 6, Imipenem, reference compound] |  |  |  |  |  | MIC [3]: > 50 µM; MIC ([4]; Enterococcus faecalis, ATCC29212): < 0.03 µM |
| CN(C)[C@@H]1C(O)=C(C(N)=O)C(=O)[C@@]2(O)C(O)=C3C(=O)c4c(O)cccc4[C@@](C)(O)[C@H]3C[C@@H]12 [Ref. 7, Tetracycline, reference compound] |  |  |  |  |  | MIC ([1]; Escherichia coli, ATCC35218, read-out: MIC E.c.): 1.8 µM (≈ 0.8 µg/mL); MIC ([2]; Pseudomonas aeruginosa, ATCC9027, read-out: MIC P.a.): > 50 µM; MIC [3]: 0.4 µM (≈ 0.178 µg/mL) |
| ALWKTLLKKVLKAAAK-NH2 (C-terminus assumed) [Ref. 3, K4S4(1-16), reference compound] |  |  |  | 3.1 | 47 |  |
| GIGKFLKKAKKFGKAFVKILKK-NH2 (C-terminus assumed) [Ref. 1, MSI-78, reference compound] |  |  |  | 37.5 | 44 |  |
